Among the test systems are HCC 2998; 786-0; SF-295; OVCAR-3; NCI-H23; UACC-257; SNB-75; K562; RXF 393; MCF7; BT-549; NCI-H226; SK-MEL-2; SN12C; OVCAR-8; SF-268; MDA-MB-435; EKVX; MDA-N.
Common to all, as to assay: NCI anticancer screen, dose series, 48 h

This is an account of results in ChEMBL document CHEMBL1201862, “PubChem BioAssay data set” (2004).

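Values below derive from 48-hour exposures of cells grown in 96-well plates, with endpoints linearly interpolated between the two concentrations bracketing the appropriate inhibition level. At the GI50, growth is halved.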 Calls of active or inactive are those of the source. Cut-off read from the data, not from the text of the source: active = GI50 up to about 1.1 µM and inactive = higher.

In the case of `Cc1c(S(=O)(=O)O)ccc(/N=N/c2c(O)c(C(=O)O)cc3ccccc23)c1Cl`, the GI50 is > 100 µM (inactive) with HCC 2998; > 89.3 µM (inactive) in the assay on 786-0; > 100 µM (inactive) in the assay on SF-295; > 100 µM (inactive) with OVCAR-3; > 100 µM (inactive) with NCI-H23; > 100 µM (inactive) in the assay on UACC-257. For the same molecule, the GI50 in the assay on SNB-75, in the assay on K562, with RXF 393, with MCF7, with BT-549 and in the assay with NCI-H226 was > 100 µM (inactive) throughout. Moreover, the GI50 with SK-MEL-2, with SN12C, in the assay with OVCAR-8, in the assay with SF-268, in the assay on MDA-MB-435 and in the assay with EKVX was > 100 µM (inactive) in each case. The GI50 in the assay with MDA-N is > 100 µM (inactive).
Regarding `O=C1CSC(c2cc3cc(Br)ccc3nc2Cl)N1c1ccc(Cl)cc1` (configuration not stated), the GI50 was 19.2 µM (inactive) in the assay on HCC 2998; 35.6 µM (inactive) in the assay with 786-0; 12.9 µM (inactive) with SF-295; 16.7 µM (inactive) in the assay with OVCAR-3; 31.3 µM (inactive) in the assay with NCI-H23; 14.8 µM (inactive) in the assay with UACC-257. Moreover, the GI50 is 52.2 µM (inactive) in the assay with SNB-75; 7.33 µM (inactive) with K562; 20.8 µM (inactive) with RXF 393; 17.9 µM (inactive) in the assay on MCF7; 26.8 µM (inactive) with BT-549; 39.2 µM (inactive) in the assay with NCI-H226. Further, the GI50 in the assay on SK-MEL-2 is 14.7 µM (inactive); with SN12C, 20.2 µM (inactive); with OVCAR-8 it was 44.1 µM (inactive); with SF-268 it was 22.2 µM (inactive); in the assay with MDA-MB-435 it was 16.8 µM (inactive); in the assay on EKVX, 27.2 µM (inactive). Moreover, the GI50 in the assay with MDA-N is 27.4 µM (inactive).
As to `COc1ccc(-c2oc3c(OC)c(OC)c(OC)c(O)c3c(=O)c2OC)cc1OC`, the GI50 was 19.3 µM (inactive) in the assay with HCC 2998; 25.4 µM (inactive) in the assay on 786-0; 22 µM (inactive) in the assay with SF-295; 22.7 µM (inactive) with OVCAR-3; 31.1 µM (inactive) in the assay on NCI-H23; 32.1 µM (inactive) in the assay with UACC-257. Moreover, the GI50 in the assay on SNB-75 was 1.66 µM (inactive); in the assay on K562, 10.6 µM (inactive); in the assay on RXF 393, 17.4 µM (inactive); in the assay with MCF7 it was 3.97 µM (inactive); in the assay on BT-549 it was 34.4 µM (inactive); in the assay with NCI-H226, 20.7 µM (inactive). Further, the GI50 was 15.1 µM (inactive) with SK-MEL-2; 26.2 µM (inactive) in the assay with SN12C; 25.4 µM (inactive) in the assay with OVCAR-8; 9.33 µM (inactive) in the assay with SF-268; 4.69 µM (inactive) with MDA-MB-435; 37.6 µM (inactive) with EKVX. Also, in the assay with MDA-N, the GI50 was 10.3 µM (inactive).
As to `COc1cc(C2c3cc4c(cc3OC(N3CCNCC3)C2C)OCO4)cc(OC)c1OC` (configuration not stated), the GI50 in the assay with HCC 2998 is 2.26 µM (inactive); in the assay with 786-0, 0.746 µM (active); with SF-295, 0.234 µM (active); with OVCAR-3 it was 0.204 µM (active); with NCI-H23 it was 1.09 µM (active); in the assay with UACC-257 it was 3.75 µM (inactive). The GI50 is 0.262 µM (active) in the assay with SNB-75; 0.413 µM (active) in the assay on K562; 0.3 µM (active) in the assay with RXF 393; 0.385 µM (active) in the assay with MCF7; 0.579 µM (active) with BT-549; 1.83 µM (inactive) in the assay on NCI-H226. The GI50 in the assay with SK-MEL-2 is 1 µM (active); with SN12C it was 2.59 µM (inactive); in the assay with OVCAR-8, 2.93 µM (inactive); in the assay with SF-268, 0.836 µM (active); in the assay on MDA-MB-435, 0.269 µM (active); in the assay with EKVX, 6.38 µM (inactive). Also, the GI50 in the assay on MDA-N is 0.253 µM (active).
As to `COc1ccc(/C=C2\N/C(=N\N=C/C(O)C(O)C(O)C(O)CO)NC2=O)cc1` (configuration not stated), the GI50 in the assay with HCC 2998 was 11.6 µM (inactive); in the assay on 786-0, 35.5 µM (inactive); in the assay on SF-295 it was 40.5 µM (inactive); in the assay with OVCAR-3, 18.6 µM (inactive); in the assay on NCI-H23, 23.6 µM (inactive); in the assay with UACC-257 it was 30.1 µM (inactive). Moreover, the GI50 was 22.1 µM (inactive) with SNB-75; 62.8 µM (inactive) in the assay on K562; 56.5 µM (inactive) with RXF 393; 23.1 µM (inactive) in the assay with MCF7; 24.6 µM (inactive) in the assay with BT-549; 39.3 µM (inactive) in the assay on NCI-H226. Further, the GI50 with SK-MEL-2 was 17.8 µM (inactive); in the assay with SN12C, 23.9 µM (inactive); in the assay on OVCAR-8, 32.4 µM (inactive); in the assay with SF-268 it was 22.7 µM (inactive); in the assay with MDA-MB-435, 26.2 µM (inactive); in the assay on EKVX it was > 100 µM (inactive). Further, the GI50 in the assay with MDA-N was 20.1 µM (inactive).
`O=C(NNC(=O)c1ccccc1SSc1ccccc1C(=O)NNC(=O)c1ccccc1S)c1ccccc1S`: the GI50 in the assay with HCC 2998 was 48.2 µM (inactive); with 786-0 it was 11.4 µM (inactive); in the assay with SF-295 it was 10.6 µM (inactive); in the assay with OVCAR-3, 31 µM (inactive); with NCI-H23, 12.3 µM (inactive); with UACC-257, 27.7 µM (inactive). In addition, the GI50 was 11.7 µM (inactive) with SNB-75; 11.3 µM (inactive) with K562; 64.9 µM (inactive) in the assay with RXF 393; 15.2 µM (inactive) in the assay with MCF7; 13.5 µM (inactive) with BT-549; 42.4 µM (inactive) in the assay with NCI-H226. The GI50 in the assay with SK-MEL-2 is 23.7 µM (inactive); in the assay on SN12C, 18.5 µM (inactive); in the assay on OVCAR-8, 16.3 µM (inactive); in the assay on SF-268, 4.24 µM (inactive); in the assay with MDA-MB-435, 16.1 µM (inactive); in the assay on EKVX, 15 µM (inactive). In the assay with MDA-N, the GI50 is 20 µM (inactive).
`Clc1ccc(Nc2nc(Cl)c3nc[nH]c3n2)cc1Cl`: the GI50 with HCC 2998 is 16.9 µM (inactive); with 786-0 it was 15.8 µM (inactive); in the assay with SF-295, 23.7 µM (inactive); in the assay on OVCAR-3, 19.1 µM (inactive); with NCI-H23, 25.4 µM (inactive); in the assay on UACC-257 it was 31.8 µM (inactive). In addition, the GI50 in the assay with SNB-75 was 18.8 µM (inactive); in the assay with K562, 37.2 µM (inactive); in the assay on RXF 393 it was 21 µM (inactive); in the assay on MCF7, 30.5 µM (inactive); in the assay on BT-549 it was 15.6 µM (inactive); with NCI-H226, 38.4 µM (inactive). Besides, the GI50 is 21.8 µM (inactive) with SK-MEL-2; 43.8 µM (inactive) with SN12C; 35.4 µM (inactive) in the assay on OVCAR-8; 22.1 µM (inactive) with SF-268; 26.9 µM (inactive) in the assay with MDA-MB-435; 1.97 µM (inactive) in the assay with EKVX. The GI50 with MDA-N is 39.8 µM (inactive).
For `CC1=CC[C@H](C(C)C)C(C(O)[C@@H](C)O[Si](c2ccccc2)(c2ccccc2)C(C)(C)C)C1=O` (some centres not stated), the GI50 with HCC 2998 is 12.7 µM (inactive); in the assay on 786-0, 15 µM (inactive); in the assay with SF-295, 15 µM (inactive); in the assay on OVCAR-3 it was 17 µM (inactive); with NCI-H23, 16.6 µM (inactive); with UACC-257 it was 12.1 µM (inactive). Besides, the GI50 in the assay on SNB-75 is 23 µM (inactive); with K562 it was 9.93 µM (inactive); in the assay on RXF 393 it was 13.5 µM (inactive); in the assay with MCF7 it was 15.8 µM (inactive); in the assay with BT-549 it was 18.9 µM (inactive); with NCI-H226 it was 20 µM (inactive). The GI50 was 15.1 µM (inactive) in the assay on SK-MEL-2; 17.9 µM (inactive) in the assay on SN12C; 22.8 µM (inactive) with OVCAR-8; 21.1 µM (inactive) in the assay on SF-268; 21.4 µM (inactive) with MDA-MB-435; 13.3 µM (inactive) in the assay with EKVX. For the same molecule, the GI50 in the assay with MDA-N is 21.2 µM (inactive).
